Results as given in patent publication US5739273A, “Transmembrane polypeptide and methods of use” (Yale University, priority 1994, dated 1998).
Residues, ends and D or L forms follow the SMILES beside them.

Test: circular dichroism titration in the presence of small unilamellar phospholipid vesicles
Type: physicochemical
Conditions: circular dichroism at 222 nanometers vs pH, DMPC small unilamellar vesicles
Excerpt: FIG. 5A is a graph showing the circular dichroism analysis of the synthetic polypeptide of FIG. 1 in the presence of dimyristoyl phosphatidylcholine (DMPC) vesicles at various pH values. The black squares indicate the initial titration (down). The open circles indicate the reverse titration (up). The open triangles indicate the second titration (down).
The well-known spectroscopic technique of polarized infrared linear dichroism is used to determine the orientation of the alpha-helical domain of the polypeptide. The orientation of the polypeptide in protein/phospholipid multilayers is inferred from the dichroism of two amide vibrations.
FIG. 5A is a graph showing circular dichroism titration of the synthetic polypeptide having the amino acid sequence set forth in FIG. 1 and sequence listing identification number 1, in the presence of a solution containing small unilamellar phospholipid vesicles made from synthetic dimyristoyl phosphatidylcholine. The y axis is millidegrees at 222 nanometers, and the x axis is pH. […] FIG. 5B is a corresponding control graph showing circular dichroism titration of the polypeptide in the […] of lipid molecules.

In the case of `CC[C@H](C)[C@H](NC(=O)[C@@H]1CCCN1C(=O)[C@H](CC(N)=O)NC(=O)[C@H](CCC(N)=O)NC(=O)[C@H](CCC(=O)O)NC(=O)CNC(=O)CN)C(=O)N[C@@H](Cc1ccc(O)cc1)C(=O)N[C@@H](Cc1c[nH]c2ccccc12)C(=O)N[C@@H](C)C(=O)N[C@@H](CCCNC(=N)N)C(=O)N[C@@H](Cc1ccc(O)cc1)C(=O)N[C@@H](C)C(=O)N[C@@H](CC(=O)O)C(=O)N[C@@H](Cc1c[nH]c2ccccc12)C(=O)N[C@@H](CC(C)C)C(=O)N[C@@H](Cc1ccccc1)C(=O)N[C@H](C(=O)N[C@H](C(=O)N1CCC[C@H]1C(=O)N[C@@H](CC(C)C)C(=O)N[C@@H](CC(C)C)C(=O)N[C@@H](CC(C)C)C(=O)N[C@@H](CC(C)C)C(=O)N[C@@H](CC(=O)O)C(=O)N[C@@H](CC(C)C)C(=O)N[C@@H](C)C(=O)N[C@@H](CC(C)C)C(=O)N[C@@H](CC(C)C)C(=O)N[C@H](C(=O)N[C@@H](CC(=O)O)C(=O)N[C@@H](C)C(=O)N[C@@H](CC(=O)O)C(=O)N[C@@H](CCC(=O)O)C(=O)NCC(=O)N[C@H](C(=O)O)[C@@H](C)O)C(C)C)[C@@H](C)O)[C@@H](C)O` [synthetic polypeptide] (H-GGEQNPIYWARYADWLFTTPLLLLDLALLVDADEGT-OH), the “pKa of formation of a polypeptide alpha-helix” value is reported as 6.0.
